Experimental data: patent US6716436B1, “Cosmetic composition for slimming containing L-arginine, an L-arginine analogue, or one of their derivatives, for topical application” (Exsymol S.A.M., priority 1999, dated 2004)
Read-outs that look alike come from different tables or passages of the source.

Experiments:
[1] = test system: rats ZUCKER fa/fa; experiment: Test in vivo on rats (weight and measurement over 5 weeks); conditions: group II ionisation every two days
From the text: Three groups of 4 rats ZUCKER fa/fa defined in an homogeneous way were placed in the animal house at 8 weeks. The experiment begins when the rats have reached 9 weeks and similar weights (240±15 g); they are placed in individual cage with water and food ad libidum. The whole of the rats are circularly hair removed on median part in order to tattoo an axis between the neck and the tail. On a group N^o I, the emulsion described in example 1 is daily applied on the hair-removed part until absorption with removing the excess. […] A third group is used as the control (group C). These experiments are carried out during 5 weeks.

[2] = Comparative study of cutaneous diffusion (diffusion cell); conditions: solution at 30 mM, 0.2 ml by cm^2 on hairless rat skin; L-arginine dosed by HPLC in dialysate
Description: (§1) Hairless rats are sacrified by intra-cardiac injection of pentobarbital; the ventral skin is recollected and hypodermis is removed with a scalpel. 0.2 ml by cm^2 of the solution to be tested are dropped on a piece of skin (dermis and epidermis) which is set on a diffusion cell. The diffusion is tested in comparison with phosphate buffer containing 0.5% of tween 20.
(§2) At different times, the phosphate buffer is replaced and L-arginine is dosed by HPLC in the recollected dialysate fractions.

[3] = test system: Segments of perirenal adipose tissue; experiment: Lipolytic activity in vitro (glycerol liberation); type: cell-based, male rabbits; conditions: rabbit perirenal adipose tissue, 37° C.
Description: The in vitro lipolytic activity of solutions containing compounds according to the invention is tested (Solutions at 4%).
Segments of perirenal adipose tissue of male rabbits are incubed in a Krebs-Ringer bicarbonate buffer pH 7.4, which contains 5,5 mM glucose, 40 mg/ml of bovin albumin serum. The total volume of incubation is 3 ml with the substance to be tested prepared in 0.01 M of NH4HCO3 and additionned in a volume of 0.1 ml. The preparations are stirred at 37° C., under a 95% O2, 5% CO2 atmosphere.
The lipolytic activity levels are quantified by glycerol liberation in the incubation medium and are expressed by gramme of lipid. The glycerol is dosed in duplicate by enzymatic method: glycerokinase, glycerophosphate deshydrogenase (Boerhinger-Mannheim), method of Wieland (32), modified by Vaughan (33).

[4] = hairless, rat, 30 mM
Description: as §1, §2

N=C(N)NCCC[C@H](N)C(=O)O.O=C(O)c1ccccc1O [Group II, arginium salicylate]
Meas ([1]; Week 1, group I daily topical): 189.75 mm | Weight ([1]; Week 1, group I daily topical): 280.25 g | Meas ([1]; Week 2, group I daily topical): 213.25 mm | Weights ([1]; Week 2, group I daily topical): 318.25 g | Meas ([1]; Week 3, group I daily topical): 224.25 mm | Weights ([1]; Week 3, group I daily topical): 345.5 g | Meas ([1]; Week 4, group I daily topical): 233.25 mm | Weights ([1]; Week 4, group I daily topical): 367.25 g | Meas ([1]; Week 5, group I daily topical): 238.5 mm | Weights ([1]; Week 5, group I daily topical): 386.25 g

CC(C)(C)C(=O)OCOC(=O)[C@@H](N)CCCNC(=N)N [L-arginylpivalloyoxymethylester]
% of diffusion after 5h [2]: 51%

C[Si](O)(O)OC(=O)C(N)CCCNC(=N)N [Monomethylsilanediol of L-arginine]
Glycerol ([3]; 15 mg/L): 1 ± 0.5 nmoles/g of lipids | Glycerol ([3]; 30 mg/L): 2.40 ± 0.35 nmoles/g of lipids | Glycerol ([3]; 45 mg/L): 2.5 ± 0.35 nmoles/g of lipids | % of diffusion after 5h [4]: 42%
